Molecules are shown by their SMILES. ≈ marks a conversion by molar mass, not a printed value. Structures can show the parent of a compound that is named as a salt.

In the first experiment the test system is voltage operated calcium channels. The experiment can be described thus: inhibition of depolarization-stimulated 45Ca uptake into brain synaptosomes. The format is biochemical, male Wistar rat. The following applies: inhibition of K+-stimulated 45Ca uptake, rat cerebral cortex synaptosomes (P2), 15 s incubation. An excerpt:
The pharmacological properties of the compounds of the invention can be illustrated by determining their capability to inhibit calcium uptake into brain synaptosomes.
Depolarization of neuronal membranes leads to an opening of socalled `voltage operated calcium channels` (VOC) in the membranes which allows a massive influx of calcium from the extracellular space. A crude synaptosomal preparation (socalled P2 fraction) contains small vesicles surrounded by neuronal membrane and it is possible in such a preparation to study a depolarization-induced opening of VOC.
A male Wistar rat is decapitated and the cerebral cortex removed and homogenized in 20 ml. of ice-cold 0.32 M sucrose using a glass homogenizer with a teflon pestle. All subsequent steps for isolation of synaptosomes are done at 0°-4° C. The homogenate is centrifuged at 1000×g for 10 min and the resulting supernatant is re-centrifuged at 18000×g for 20 min. This pellet (P2) is resuspended in 0.32 M sucrose (10 ml per g of original tissue) with a teflon pestle.
The tubes are pre-incubated for 30 min on ice and then for 6 min at 37° C. in a water bath.
The incubation is continued for 15 s.
The amount of radioactivity on the filter disc is determined by liquid scintillation spectrometry.
Test substances are dissolved in 10 ml of 48% ethanol at a concentration of 0.44 mg/ml. Dilutions are made in 48% ethanol to give final concentrations of 0.1, 0.3, 1, 3 and 0 10 μg/ml. Experiments are performed in duplicate. Controls for depolarized and nondepolarized samples are included in the assay and test substances are only tested in depolarized samples.
The IC50 value is estimated from dose response curves.
In the case of `CCN1CC[C@@H](c2ccc(F)cc2)[C@H](COc2ccc(C(C)(C)C)cc2)C1.Cl` (relative stereo) [trans-1-ethyl-4-(4-fluorophenyl)-3-(4-t-butylphenoxymethyl)piperidine hydrochloride], the concentration for half-maximal inhibition (IC50) worked out at 2.5 µg/mL.

As to `CCCCN1CC[C@@H](c2ccc(F)cc2)[C@H](COc2ccc3c(c2)OCO3)C1` (single isomer, unassigned), the IC50 worked out at 1.9 µg/mL (≈ 4.93 µM). Take `CCCCN1CC[C@@H](c2ccc(F)cc2)[C@H](COc2ccc(OC)cc2)C1` (single isomer, unassigned): the IC50 came to 2.3 µg/mL (≈ 6.19 µM). Same read-out and setting: in the case of `CCCCCN1CC[C@@H](c2ccc(F)cc2)[C@H](COc2ccc3c(c2)OCO3)C1` (single isomer, unassigned) it was 1.5 µg/mL (≈ 3.75 µM). Still for that read-out and setting: for `CCCCCN1CC[C@@H](c2ccccc2)[C@H](COc2ccc3c(c2)OCO3)C1` (single isomer, unassigned) the value was 2.4 µg/mL (≈ 6.29 µM). As for `CCCCCN1CC[C@@H](c2ccc(F)cc2)[C@H](COc2ccc3c(c2)CCCC3)C1` (single isomer, unassigned), the IC50 stood at 0.4 µg/mL (≈ 0.977 µM).

Turning to `C=CCN1CC[C@@H](c2ccc(F)cc2)[C@H](COc2ccc3c(c2)OCO3)C1` (single isomer, unassigned) [(-)--trans-4-(-4-fluorophenyl)-3-(3,4-methylenedioxyphenoxymethyl)-1-allyl-piperidine hydrochloride], the IC50 came out at 0.8 µg/mL.

With `COc1ccc(OC[C@@H]2CN(C(C)C)CC[C@H]2c2ccc(F)cc2)cc1.Cl` (single isomer, unassigned) [(-)-trans-1-isopropyl-4-(4-fluorophenyl)-3-(4-methoxyphenoxymethyl)-piperidine hydrochloride], the IC50 worked out at 4.3 µg/mL. Same read-out and setting: in the case of `CCCCCCCCN1CC[C@@H](c2ccc(F)cc2)[C@H](COc2ccc3c(c2)OCO3)C1` (single isomer, unassigned) [(-)-trans-4-(-4-fluoropheny1)-3-(3,4-methylenedioxyphenoxymethyl)-1-octylpiperidine hydrochloride] it was 2.2 µg/mL.

A further experiment relates to peripheral calcium uptake, e.g. in blood vessels and the heart.
Experiment: not given
The following applies: cited from earlier work.
For the compound `COc1ccc([C@@H]2Sc3ccccc3N(CCN(C)C)C(=O)[C@@H]2OC(C)=O)cc1` [Diltiazem], the “activity against peripheral calcium uptake” value was “have activity”. As for `COC(=O)C1=C(C)NC(C)=C(C(=O)OC)C1c1ccccc1[N+](=O)[O-]` [Nifedipin], the “activity against peripheral calcium uptake” value is on record as “have activity”.

On to `COc1ccc(CCN(C)CCCC(C#N)(c2ccc(OC)c(OC)c2)C(C)C)cc1OC` (stereo not drawn) [Verapamil], for which the “activity against peripheral calcium uptake” value was “have activity”.

Source of the values: patent publication US5019582A, “Piperidine compounds and their preparation and use” (Novo Nordisk A/S, priority 1986, dated 1991).
